According to ChEMBL document CHEMBL5329166, “Discovery of imeglimin-inspired novel 1,3,5-triazine derivatives as antidiabetic agents in streptozotocin-induced diabetes in Wistar rats via inhibition of DPP-4” (RSC Med Chem, 2023):
Active and inactive are the calls of the source. The rule behind the calls is not given here.

What was measured:
Dipeptidyl peptidase 9 = Dipeptidyl peptidase 9 (Homo sapiens, UniProt Q86TI2); assay: Inhibition of N-terminal GST-tagged human recombinant DPP-9 short form (1 to 863 residues) expressed in Sf9 cells using Ala-Pro-AMC dipeptide as substrate by fluorescence based assay
[1] = Antioxidant activity assessed as DPPH scavenging activity incubated for 30 mins by absorbance based assay; format: functional; conditions: dose 25-100 µg/ml
[2] = Acute toxicity in rat assessed as animal survival at 2000 mg/kg, po measured after 30 mins to 4 hrs; format: organism-based; conditions: in vivo, time 0.5-4 hrs
[3] = Acute toxicity in rat assessed as diarrhoea at 2000 mg/kg, po measured after 30 mins to 4 hrs; format: organism-based; conditions: in vivo, time 0.5-4 hrs
[4] = Acute toxicity in po dosed rat measured after 30 mins to 4 hrs; format: organism-based; conditions: in vivo, time 0.5-4 hrs
[5] = Acute toxicity in rat assessed as change in animal fur at 300 to 1000 mg/kg, po measured after 6 hrs; format: organism-based; conditions: in vivo, dose 300-1000 mg/kg
[6] = Acute toxicity in rat assessed as change in mucosal membranes at 300 to 1000 mg/kg, po measured after 6 hrs; format: organism-based; conditions: in vivo, dose 300-1000 mg/kg
[7] = Acute toxicity in rat assessed as sleep and sluggish effect at 300 to 1000 mg/kg, po measured after 6 hrs; format: organism-based; conditions: in vivo, dose 300-1000 mg/kg
Rattus norvegicus [8] = assay: Antidiabetic activity in high fat diet/STZ induced diabetic Wistar rat model assessed as increase in body weight at 3 to 30 mg/kg, IG pretreated with STZ for 21 days followed by compound treatment once daily for 21 days; format: functional, organism-based; conditions: dose 3-30 mg/kg, time 21.0 day
Rattus norvegicus [9] = assay: Antidiabetic activity in high fat diet/STZ induced diabetic Wistar rat model assessed as increase in HDL level at 3 to 30 mg/kg, IG pretreated with STZ for 21 days followed by compound treatment once daily for 21 days by spectrophotometric analysis; format: functional, organism-based; conditions: dose 3-30 mg/kg, time 21.0 day
Rattus norvegicus [10] = assay: Antioxidant activity in IG dosed high fat diet/STZ induced diabetic Wistar rat model assessed as reversal of SOD reduction in kidney pretreated with STZ for 21 days followed by compound treatment once daily for 21 days by spectrophotometric analysis; format: functional, organism-based; conditions: dose 3-30 mg/kg, time 21.0 day
Rattus norvegicus [11] = assay: Antioxidant activity in IG dosed high fat diet/STZ induced diabetic Wistar rat model assessed as reversal of CAT reduction in kidney pretreated with STZ for 21 days followed by compound treatment once daily for 21 days by spectrophotometric analysis; format: functional, organism-based; conditions: dose 3-30 mg/kg, time 21.0 day
Rattus norvegicus [12] = assay: Antioxidant activity in IG dosed high fat diet/STZ induced diabetic Wistar rat model assessed as reversal of GSH reduction in kidney pretreated with STZ for 21 days followed by compound treatment once daily for 21 days by spectrophotometric analysis; format: functional, organism-based; conditions: dose 3-30 mg/kg, time 21.0 day
Rattus norvegicus [13] = assay: Antioxidant activity in IG dosed high fat diet/STZ induced diabetic Wistar rat model assessed as reversal of GPx reduction in kidney pretreated with STZ for 21 days followed by compound treatment once daily for 21 days by spectrophotometric analysis; format: functional, organism-based; conditions: dose 3-30 mg/kg, time 21.0 day
Rattus norvegicus [14] = assay: Antioxidant activity in IG dosed high fat diet/STZ induced diabetic Wistar rat model assessed as reversal of GPx reduction in liver pretreated with STZ for 21 days followed by compound treatment once daily for 21 days by spectrophotometric analysis; format: functional, organism-based; conditions: dose 3-30 mg/kg, time 21.0 day
Rattus norvegicus [15] = assay: Antioxidant activity in high fat diet/STZ induced diabetic Wistar rat model assessed as recovery of pancreatic epithelial cell damage and acini architecture at 10 mg/kg, IG pretreated with STZ for 21 days followed by compound treatment once daily for 21 days by H and E staining based microscopic analysis; format: functional, organism-based; conditions: time 21.0 day
Rattus norvegicus [16] = assay: Antioxidant activity in high fat diet/STZ induced diabetic Wistar rat model assessed as repair of pancreatic epithelial cells with reduced fibrosis at 30 mg/kg, IG pretreated with STZ for 21 days followed by compound treatment once daily for 21 days by H and E staining based microscopic analysis; format: functional, organism-based; conditions: time 21.0 day
Rattus norvegicus [17] = assay: Antioxidant activity in high fat diet/STZ induced diabetic Wistar rat model assessed as appearance of dilated central veins in hepatocytes at 30 mg/kg, IG pretreated with STZ for 21 days followed by compound treatment once daily for 21 days by H and E staining based microscopic analysis; format: functional, organism-based; conditions: time 21.0 day
Rattus norvegicus [18] = assay: Antioxidant activity in high fat diet/STZ induced diabetic Wistar rat model assessed as absence of feathery hepatocyte deterioration at 30 mg/kg, IG pretreated with STZ for 21 days followed by compound treatment once daily for 21 days by H and E staining based microscopic analysis; format: functional, organism-based; conditions: time 21.0 day
Rattus norvegicus [19] = assay: Antioxidant activity in high fat diet/STZ induced diabetic Wistar rat model assessed as reduction in mesangial cellularity and matrix at 10 to 30 mg/kg, IG pretreated with STZ for 21 days followed by compound treatment once daily for 21 days by H and E staining based microscopic analysis; format: functional, organism-based; conditions: dose 10-30 mg/kg, time 21.0 day
Rattus norvegicus [20] = assay: Antioxidant activity in high fat diet/STZ induced diabetic Wistar rat model assessed as reduction in lymphocyte level in renal stroma at 3 to 30 mg/kg, IG pretreated with STZ for 21 days followed by compound treatment once daily for 21 days by H and E staining based microscopic analysis; format: functional, organism-based; conditions: dose 3-30 mg/kg, time 21.0 day
Rattus norvegicus [21] = assay: (§1) Antioxidant activity in high fat diet/STZ induced diabetic Wistar rat model assessed as reduction in hazy swelling of columnar cells in tubules at 3 mg/kg, IG pretreated with STZ for 21 days followed by compound treatment once daily for 21 days by H and E staining based microscopic analysis; format: functional, organism-based; conditions: time 21.0 day
Rattus norvegicus [22] = assay: as §1, with “appearance of sufficient cloudy” for “reduction in hazy”, “10” for “3”; format: functional, organism-based; conditions: time 21.0 day
Rattus norvegicus [23] = assay: Antioxidant activity in high fat diet/STZ induced diabetic Wistar rat model assessed as appearance of typical columnar cells in tubules at 30 mg/kg, IG pretreated with STZ for 21 days followed by compound treatment once daily for 21 days by H and E staining based microscopic analysis; format: functional, organism-based; conditions: time 21.0 day

Sequence of Dipeptidyl peptidase 9 (Q86TI2 whole entry, the tested form may be a part): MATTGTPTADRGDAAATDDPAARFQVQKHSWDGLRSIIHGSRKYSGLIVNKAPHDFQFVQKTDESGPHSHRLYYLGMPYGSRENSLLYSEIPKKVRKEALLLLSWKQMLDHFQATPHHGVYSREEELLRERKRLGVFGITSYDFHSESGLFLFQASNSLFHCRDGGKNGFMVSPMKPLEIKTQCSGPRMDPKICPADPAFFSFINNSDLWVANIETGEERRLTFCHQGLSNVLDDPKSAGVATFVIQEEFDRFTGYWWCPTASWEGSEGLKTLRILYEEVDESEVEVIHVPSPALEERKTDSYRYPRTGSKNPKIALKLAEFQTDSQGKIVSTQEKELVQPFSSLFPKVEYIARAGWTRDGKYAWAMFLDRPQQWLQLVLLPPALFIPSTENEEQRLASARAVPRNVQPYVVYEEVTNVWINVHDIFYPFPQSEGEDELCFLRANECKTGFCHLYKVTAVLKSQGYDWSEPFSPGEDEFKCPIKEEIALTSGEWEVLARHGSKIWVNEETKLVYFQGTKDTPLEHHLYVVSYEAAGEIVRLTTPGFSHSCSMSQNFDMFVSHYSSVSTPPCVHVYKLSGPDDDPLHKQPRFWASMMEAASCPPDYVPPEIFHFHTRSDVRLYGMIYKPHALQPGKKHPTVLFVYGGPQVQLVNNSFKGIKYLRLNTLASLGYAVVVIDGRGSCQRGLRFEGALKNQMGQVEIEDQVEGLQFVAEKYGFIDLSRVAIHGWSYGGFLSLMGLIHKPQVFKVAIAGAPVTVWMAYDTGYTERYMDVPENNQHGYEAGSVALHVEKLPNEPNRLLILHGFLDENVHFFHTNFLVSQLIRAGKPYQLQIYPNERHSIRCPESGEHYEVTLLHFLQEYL

## Nc1nc(NC2=NC(c3ccccc3)=CC(c3cccc([N+](=O)[O-])c3)O2)nc(N2CCOCC2)n1 (centres undefined)
Dipeptidyl peptidase 9
  IC50: > 400 nM
[1]
  Activity: Dose-Dependent Effect
[2]
  Activity: Non-Toxic
[3]
  Activity: Non-Toxic
[4]
  LD50: 2000 mg/kg
[5]
  Activity: Non-Toxic
[6]
  Activity: Non-Toxic
[7]
  Activity: Non-Toxic
Rattus norvegicus [8]
  Activity: Active
Rattus norvegicus [9]
  Activity: Active
Rattus norvegicus [10]
  Activity: Dose-Dependent Effect
Rattus norvegicus [11]
  Activity: Dose-Dependent Effect
Rattus norvegicus [12]
  Activity: Dose-Dependent Effect
Rattus norvegicus [13]
  Activity: Dose-Dependent Effect
Rattus norvegicus [14]
  Activity: Dose-Dependent Effect
Rattus norvegicus [15]
  Activity: Active
Rattus norvegicus [16]
  Activity: Active
Rattus norvegicus [17]
  Activity: Active
Rattus norvegicus [18]
  Activity: Active
Rattus norvegicus [19]
  Activity: Active
Rattus norvegicus [20]
  Activity: Active
Rattus norvegicus [21]
  Activity: inactive
Rattus norvegicus [22]
  Activity: Active
Rattus norvegicus [23]
  Activity: Active
